Assay results as given in patent US8088934B2, “Composition and method for stabilizing the same” (SUCAMPO AG, priority 1999, dated 2012).

Assays:
Assay type in all cases: physicochemical
[1] = Stability of compound 1 stored at 40° C. for 4 weeks in various solvents and containers, content by HPLC
Method: (§1) Based on the value expressed in the table 1, an amount of the solution corresponding to 36 μg of the compound 1 or 2 was weighted precisely. Precisely 1.0 ml of an internal standard solution was added, and then ethyl acetate (liquid chromatograph grade) was added to give the total amount of 10 ml each. Each 0.1 ml of the solution was vacuum concentrated to dryness to give the test preparation.
(§2) Each 18 mg of the respective standard compounds was weighted precisely and admixed with ethyl acetate (liquid chromatograph grade) to give the total amount of exactly 50 ml each. One (1.0) ml of the solution and 10.0 ml of the internal standard solution were measured precisely and admixed with ethyl acetate (liquid chromatograph grade) to give the total amount of 100 ml each. Each 0.1 ml of the solution was vacuum concentrated to dryness to give the standard preparation.
(§3) To the test and standard preparations, 0.1 ml of fluorescent labeling reagent and 0.85 ml of fluorescent labeling catalyst were added respectively, and the mixture was stirred and reacted at room temperature more than 30 minutes. 0.05 ml aliquots of acetonitrile (liquid chromatograph grade) containing 2% acetic acid were added to the reaction mixtures respectively, stirred and then stand for more than 30 minutes to provide test and standard solutions.
(§4) Each 10 μl of the test and standard solutions was loaded on liquid chromatograph and determined the content of the respective compounds by internal standard method with one point calibration curve.
(§5) [formula] WS: The amount of the compound in the standard preparation (mg) QS: Peak area ratio of the compound in the standard preparation to the internal standard QT: Peak area ratio of the compound in the test preparation to the internal standard. Measurement Condition Detector: fluorescent spectrometer (excitation wavelength 259 nm, fluorescent wavelength 394 nm) Column: A stainless tube having about 5 mm of internal diameter and about 25 cm of length, packed with 5 μm octadecylsilyl silica gel for liquid chromatograph Column temperature: Stable at around 35° C. Mobile phase: Mixed solution of acetonitrile (liquid chromatograph grade)/methanol (liquid chromatograph grade)/aqueous ammonium acetate (0.05 mol/l) (4:11:5) The results are shown in Table 1 below.
Each of the solutions was placed in a container made of low-density polyethylene (LDPE), hard glass or stainless steel and stored at 40° C. The content of the compound 1 in the solutions after four weeks were determined by HPLC method according to the above described (2) of Example 1 except for using composition shown in table 2 below.

[2] = Stability of compound 1 stored at 40° C. for 4 weeks in various ratio of MCT to Mineral oil, content by HPLC
Method: as §1, §2, §3, §4, §5
Each of the solutions was placed in a container made of LDPE and stored at 40° C. The content of the compound in the solutions after four weeks were determined by HPLC method according to the above described (2) of Example 1 except for using composition shown in table 3 below.

[3] = Stability of the compounds dissolved in medium chain fatty acid triglyceride (MCT) stored at 40° C., content by HPLC; conditions: for stability on admixing with the glyceride (conclusion from Table 1): MCT versus crystal; for content of the compound stored at 40° C., 14 days / content of the compound stored at 40° C., initial: in MCT (compound 1: 0.36 mg/g; compound 2: 0.12 mg/g)
Method: (§6) The above-described compounds 1 and 2 were dissolved in the medium chain fatty acid triglyceride (MCT)^31 at the amount shown in the table 1 below respectively. Each of the solutions was placed in a container made of hard glass and stored at 40° C. The time-course of the content of the compound 1 and 2 in the solutions were determined by HPLC method. The medium chain fatty acid triglyceride used herein was a mixture of caprylic acid triglyceride and capric acid triglyceride (85:15). At the same time, each of the compounds 1 and 2 was placed solely (without being dissolved in the solvent) in the container as above and stored at 40° C. to provide control study.
as §1, §2, §3, §4, §5

[4] = Stability of the compounds stored solely (crystal, without solvent) at 40° C., content by HPLC; conditions: crystal (no solvent), hard glass container
Method: as §6
(1) Under the absence of the solvent, the content of the compound was determined as follows (HPLC method).
The stored compounds 1 and 2, and standard compounds 1 and 2 were weighed precisely around 0.025 g each, and exactly 5 ml aliquots of an internal standard solution were added to the respective weighed compounds. Then the test and standard preparations were obtained by adding acetonitrile (liquid chromatograph grade) to give the precise total amount of 10 ml each. Each 10 μl of the test and standard preparations was loaded on liquid chromatograph and determined the content of the compound by internal standard method with one point calibration curve.
[formula] Ws: The amount of the compound in the standard preparation (mg) WT: The amount of the compound 1 or 2 in the test preparation QS: Peak area ratio of the compound in the standard preparation to the internal standard. QT: Peak area ratio of the compound in the test preparation to the internal standard. Measurement Conditions Detector: Ultraviolet absorption spectrophotometer (wavelength: 294 nm) Column: A stainless tube having about 5 mm of internal diameter and about 25 cm of length, packed with 5 μm octadecylsilyl silica gel for liquid chromatograph Column temperature: Stable at around 35° C. Mobile phase: Mixed solution of acetonitrile (liquid chromatograph grade)/aqueous sodium acetate (0.01 mol/l)/glacial acetic acid (800:200:1) (2) Under the presence of the solvent, the content of the compound was determined as follows (HPLC method).

## CCCCC(F)(F)[C@@]1(O)CC[C@H]2[C@@H](CC(=O)[C@@H]2CCCCCCC(=O)O)O1 [compound 1, 7-[(1R,3R,6R,7R)-3-(1,1-difluoropentyl)-3-hydroxy-2-oxabicyclo[4.3.0]nonane-8-one-7-yl]heptanoic acid]
[1]; 10 μg/mL, MCT, LDPE container
  % to the initial 4 weeks after: 100.8%
[1]; 10 μg/mL, Saline, Hard glass container
  % to the initial 4 weeks after: 18.0%
[1]; 20 μg/mL, Caster oil, LDPE container
  % to the initial 4 weeks after: 102.9%
[1]; 20 μg/mL, Corn oil, LDPE container
  % to the initial 4 weeks after: 99.6%
[1]; 20 μg/mL, Diluted water, Hard glass container
  % to the initial 4 weeks after: 39.6%
[1]; 20 μg/mL, MCT, Hard glass container
  % to the initial 4 weeks after: 99.5%
[1]; 20 μg/mL, MCT, Stainless steel container
  % to the initial 4 weeks after: 99.5%
[1]; 20 μg/mL, Olive oil, LDPE container
  % to the initial 4 weeks after: 99.0%
[1]; 20 μg/mL, Sesame oil, LDPE container
  % to the initial 4 weeks after: 100.1%
[1]; glycerides versus water or saline
  stability on admixing with the glyceride (conclusion from Table 2): significantly improved
[2]; 0.5 μg/mL, MCT/MO (V/V) 1/99, LDPE
  % to the initial 4 weeks after: 91.0%
[2]; 0.5 μg/mL, MCT/MO (V/V) 2/98, LDPE
  % to the initial 4 weeks after: 96.6%
[2]; 0.5 μg/mL, MCT/MO (V/V) 5/95, LDPE
  % to the initial 4 weeks after: 98.1%
[2]; 0.5 μg/mL, MCT/MO (V/V) 10/90, LDPE
  % to the initial 4 weeks after: 99.0%
[2]; 0.7 μg/mL, MCT/MO (V/V) 0/100, LDPE
  % to the initial 4 weeks after: 88.3%
[2]; 10 μg/mL, MCT/MO (V/V) 50/50, LDPE
  % to the initial 4 weeks after: 101.9%
[2]; MCT/Mineral oil mixtures
  stability on admixing with the mixture of glyceride and other oil solvent (conclusion from Table 3): significantly improved
[3]
  stability on admixing with the glyceride (conclusion from Table 1): significantly improved
[3]; in MCT (compound 1: 0.36 mg/g), hard glass, 38 days
  content of the compound stored at 40° C., 38 days: 102.1%
[3]; in MCT (compound 1: 0.36 mg/g), hard glass, 90 days
  content of the compound stored at 40° C., 90 days: 100.9%
[3]; hard glass
  content of the compound stored at 40° C., 14 days: 101.4%
  content of the compound stored at 40° C., initial: 100%
[4]; 7 days
  content of the compound stored at 40° C., 7 days: 97.2%
[4]
  content of the compound stored at 40° C., 14 days: 94.1%
  content of the compound stored at 40° C., 28 days: 87.4%
  content of the compound stored at 40° C., initial: 100%

## CC[C@H](C)CC(F)(F)[C@@]1(O)CC[C@H]2[C@@H](CC(=O)[C@@H]2CCCCCCC(=O)O)O1 [compound 2, 7-[(1R,6R,7R)-3-[(3S)-1,1-difluoro-3-methylpentyl]-3-hydroxy-2-oxabicyclo[4.3.0]nonane-8-one-7-yl]heptanoic acid]
[3]
  stability on admixing with the glyceride (conclusion from Table 1): significantly improved
[3]; hard glass
  content of the compound stored at 40° C., 14 days: 99.6%
  content of the compound stored at 40° C., initial: 100%
[3]; in MCT (compound 2: 0.12 mg/g), hard glass, 28 days
  content of the compound stored at 40° C., 28 days: 98.9%
[3]; in MCT (compound 2: 0.12 mg/g), hard glass, 191 days
  content of the compound stored at 40° C., 191 days: 99.6%
[4]; 6 days
  content of the compound stored at 40° C., 6 days: 84.5%
[4]
  content of the compound stored at 40° C., 14 days: 75.0%
  content of the compound stored at 40° C., 28 days: 53.4%
  content of the compound stored at 40° C., initial: 100%
